Entries after “also recorded” stand apart in the source; their conditions may differ. Like-named read-outs stand apart in the source and are kept apart here.
Assays:
[1] = test system: MiaPaCa-2 xenografts; format: in vivo, mouse; conditions: H2D Rag2 mice, 50 or 100 mg/kg daily oral gavage
Text: H2D Rag2 mice were inoculated with 3 million MiaPaCa-2 cells.

[2] = test system: EBC-1 xenografts; test: EBC-1 xenograft (cMET amplified non-small cell lung cancer); format: in vivo; conditions: CD-1 nude mice, 100 mg/kg daily oral gavage
Text: CD-1 nude mice were inoculated with 5 million EBC-1 cells.

[3] = biological target: auto-activated mutant protein SHP2 E76K (Homo sapiens (Human), UniProt Q06124, E76K); test: SHP2 active mutant E76K biochemical assay with and without activating peptide
Method: The inhibition of SHP2 by compounds of the invention was monitored using the surrogate substrate DiFMUP after protein activation by a peptide bearing two appropriately spaced phosphotyrosine. Full length SHP2 protein (Recombinant HumanSHP-2, E. coli derived Ser2Arg593, N-terminal 6His tag from R&D systems; 0.0.24 nM) was incubated with activating peptide, IRSI_2pY (New England Peptide, 140 nM) and DiFMUP (molecular probes, 80 uM) at RT in buffer (HEPES pH 7.2 60 mM, DDT 5 mM, KCl 75 mM, NaCl 75 mM, EDTA 1 mM, Tween 20 0.05%) in presence of compound (10 concentrations range, top concentration 50 μM) for 60 min. The generation of the DiFMU product by activated SHP2 was monitored through Fluorescence measurement with a PerkinElmer Envision reader. The inhibitor dose response curves were analyzed with Genedata Screener.

[4] = test system: Kyse-520 xenografts; test: Kyse-520 xenograft (EGFR amplified esophageal cancer); conditions: H2D Rag2 mice, 10, 30 or 100 mg/kg daily oral gavage
Text: H2D Rag2 mice were inoculated with 5 million KYSE-520 cells mixed with matrigel.
In vivo efficacy of compound 74a in an EGFR amplified setting was investigated in Kyse-520 xenografts. H2D Rag2 mice were inoculated with 5 million KYSE-520 cells mixed with matrigel.

[5] = biological target: Kv11.1 (hERG) ion channel (Homo sapiens (Human), UniProt Q12809); test: hERG patch clamp in Kv11.1 transfected HEK293 cells; format: cell-based
Method: Inhibition of the ion channel hErg (or Kv11.1) current causes QT interval prolongation resulting in potentially fatal ventricular tachyarrhythmia called Torsade de Pointes.
hERG ion channel activity was assessed using a patch clamp technique in stable Kv11.1 (hERG) transfected human embryonic kidney cell line (HEK293). Whole cell recordings were carried out with an automated patch clamp device Patchliner™ from Nanion Technologies, Munich following manufacturer recommendation. Different concentrations of the test compound or reference, quinidine, were applied to whole cells suspension and current was measured using a pulse pattern with fixed amplitudes.

[6] = test system: pERK1/2 in KYSE520 cells; test: p-Erk cellular assay in KYSE520 (Mesoscale); format: cell-based; conditions: Homo sapiens, KYSE-520, 2 h, read-out: pERK1/2 in Cell KYSE520 IC50
Method: p-Erk Cellular Assay in KYSE520: The effect of SHP2 inhibitors on pERK level was assessed using phospho-specific antibody using Mesoscale quantification platform. For measuring change in pERK levels using mesoscale, 30,000 cells of KYSE520 cells were plated in 96-well tissue culture treated plate in 175 μl volume of media. After an overnight incubation at 37° C., various SHP2 inhibitors were added in different concentration to each well maintaining duplicate wells across plates and incubated with compounds for 2 h at 37° C. followed by a wash with ice cold PBS buffer. The cells were then lysed in lysis buffer and processed and analyzed for p-ERK/ERK as per manufacturer's instructions (Mesoscale discovery, cat No. […]-3).

[7] = Pharmacokinetics in mouse (oral / intravenous); format: in vivo; conditions: female CD1 mice
Method: Female CD1 mice (N=3) received a single oral (gavage) or a single intravenous (bolus) injection of compound. […] Consecutive blood samples were taken sub-lingually under isofluorane inhalation from animals after 0.083 (IV), 0.25, 0.5, 1, 2, 4, 6 and 24 h and were further processed to obtain plasma. Samples were protein precipitated and analysed by LC/MS/MS.

[8] = biological target: Full length SHP2 protein (Recombinant Human SHP-2) (Homo sapiens (Human), UniProt Q06124); test: SHP2 biochemical assay (DiFMUP substrate, activating peptide IRSI_2pY)
Method: The inhibition of SHP2 by compounds of the invention was monitored using the surrogate substrate DiFMUP after protein activation by a peptide bearing two appropriately spaced phosphotyrosine. […] The generation of the DiFMU product by activated SHP2 was monitored through Fluorescence measurement with a PerkinElmer Envision reader. The inhibitor dose response curves were analyzed with Genedata Screener.

[9] = test system: U87-MG xenografts; test: U87-MG xenograft (PTEN LOF glioblastoma); format: in vivo, mouse; conditions: CD-1 nude mice, 50 mg/kg daily oral gavage, FIG. 6
Text: CD-1 nude mice were inoculated with 10 million U87-MG cells.

[10] = biological target: Recombinant human SHP2 protein (2-593) (Homo sapiens (Human), UniProt Q06124); test: SPR binding assay
Method: The immobilization buffer contained 20 mM HEPES/NaOH (pH 7.4), 150 mM NaCl, 0.05% Tween 20. Inhibitors (stored as 10 mM stock solutions in 100% DMSO) were diluted in running buffer (20 mM HEPES/NaOH pH 7.4, 150 mM NaCl, 1 mM DTT, 5 mM MgCl2 0.1 mM EGTA, 0.05% Tween 20, 2% DMSO @25° C.) and analysed with a Biacore 4000 (Biacore AB, GE Healthcare Life Sciences, Uppsala, Sweden) using a 2-fold dilution series. The highest compound concentration varied according to the expected dissociation constant, but all compounds were tested at 10 different concentrations. Interaction analysis cycles were run at 30 μL/min and consisted of a 140 s sample injection followed by 600 s of buffer flow (dissociation phase). All sensograms were evaluated by first subtracting the binding response recorded from the control surface (reference spot), followed by subtracting a buffer blank injection. To determine kinetic rate constants, data sets were fitted to a simple 1:1 interaction model including a term for mass transport using numerical integration and nonlinear curve fitting. Equilibrium analysis was performed by fitting the response at the end of the association phase to a single-site binding isotherm.

[11] = test system: HPAF-2 xenografts; conditions: CB17.SCID mice, 50 mg/kg 23B or 60 mg/kg RMC-4550 daily oral gavage

Full length SHP2 protein (Recombinant Human SHP-2), sequence (Q06124 2-593): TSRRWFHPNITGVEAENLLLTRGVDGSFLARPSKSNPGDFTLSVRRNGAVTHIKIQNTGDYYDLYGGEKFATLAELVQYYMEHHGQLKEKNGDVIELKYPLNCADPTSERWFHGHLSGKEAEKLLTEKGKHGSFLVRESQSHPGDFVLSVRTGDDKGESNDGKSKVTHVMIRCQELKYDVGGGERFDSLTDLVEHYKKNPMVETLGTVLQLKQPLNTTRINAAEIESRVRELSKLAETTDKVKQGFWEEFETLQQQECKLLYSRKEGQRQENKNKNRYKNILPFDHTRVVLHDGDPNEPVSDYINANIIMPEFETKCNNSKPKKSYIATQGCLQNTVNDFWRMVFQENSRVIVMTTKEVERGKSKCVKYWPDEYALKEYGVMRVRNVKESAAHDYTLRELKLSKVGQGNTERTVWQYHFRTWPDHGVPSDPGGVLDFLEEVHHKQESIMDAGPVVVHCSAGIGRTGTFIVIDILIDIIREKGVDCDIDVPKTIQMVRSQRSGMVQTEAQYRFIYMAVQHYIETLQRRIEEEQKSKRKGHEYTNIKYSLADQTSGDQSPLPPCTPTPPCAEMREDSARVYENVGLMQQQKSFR
auto-activated mutant protein SHP2 E76K, sequence (Q06124 whole entry E76K): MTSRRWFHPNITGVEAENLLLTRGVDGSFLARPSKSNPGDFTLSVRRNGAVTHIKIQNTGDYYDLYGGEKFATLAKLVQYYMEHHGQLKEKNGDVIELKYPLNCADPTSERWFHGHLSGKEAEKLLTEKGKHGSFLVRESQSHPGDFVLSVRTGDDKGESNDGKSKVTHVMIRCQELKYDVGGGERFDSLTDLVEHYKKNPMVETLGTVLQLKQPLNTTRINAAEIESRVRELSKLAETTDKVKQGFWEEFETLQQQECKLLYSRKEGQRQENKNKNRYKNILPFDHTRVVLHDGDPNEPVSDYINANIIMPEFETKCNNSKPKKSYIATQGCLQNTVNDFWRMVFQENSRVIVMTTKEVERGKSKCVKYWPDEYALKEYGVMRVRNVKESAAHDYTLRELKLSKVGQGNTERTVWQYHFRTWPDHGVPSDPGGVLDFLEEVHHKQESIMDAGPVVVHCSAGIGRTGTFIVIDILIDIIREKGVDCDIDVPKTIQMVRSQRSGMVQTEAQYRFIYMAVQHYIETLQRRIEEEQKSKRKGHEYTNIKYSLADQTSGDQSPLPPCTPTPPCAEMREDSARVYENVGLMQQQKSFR
Kv11.1 (hERG) ion channel, sequence (Q12809 whole entry): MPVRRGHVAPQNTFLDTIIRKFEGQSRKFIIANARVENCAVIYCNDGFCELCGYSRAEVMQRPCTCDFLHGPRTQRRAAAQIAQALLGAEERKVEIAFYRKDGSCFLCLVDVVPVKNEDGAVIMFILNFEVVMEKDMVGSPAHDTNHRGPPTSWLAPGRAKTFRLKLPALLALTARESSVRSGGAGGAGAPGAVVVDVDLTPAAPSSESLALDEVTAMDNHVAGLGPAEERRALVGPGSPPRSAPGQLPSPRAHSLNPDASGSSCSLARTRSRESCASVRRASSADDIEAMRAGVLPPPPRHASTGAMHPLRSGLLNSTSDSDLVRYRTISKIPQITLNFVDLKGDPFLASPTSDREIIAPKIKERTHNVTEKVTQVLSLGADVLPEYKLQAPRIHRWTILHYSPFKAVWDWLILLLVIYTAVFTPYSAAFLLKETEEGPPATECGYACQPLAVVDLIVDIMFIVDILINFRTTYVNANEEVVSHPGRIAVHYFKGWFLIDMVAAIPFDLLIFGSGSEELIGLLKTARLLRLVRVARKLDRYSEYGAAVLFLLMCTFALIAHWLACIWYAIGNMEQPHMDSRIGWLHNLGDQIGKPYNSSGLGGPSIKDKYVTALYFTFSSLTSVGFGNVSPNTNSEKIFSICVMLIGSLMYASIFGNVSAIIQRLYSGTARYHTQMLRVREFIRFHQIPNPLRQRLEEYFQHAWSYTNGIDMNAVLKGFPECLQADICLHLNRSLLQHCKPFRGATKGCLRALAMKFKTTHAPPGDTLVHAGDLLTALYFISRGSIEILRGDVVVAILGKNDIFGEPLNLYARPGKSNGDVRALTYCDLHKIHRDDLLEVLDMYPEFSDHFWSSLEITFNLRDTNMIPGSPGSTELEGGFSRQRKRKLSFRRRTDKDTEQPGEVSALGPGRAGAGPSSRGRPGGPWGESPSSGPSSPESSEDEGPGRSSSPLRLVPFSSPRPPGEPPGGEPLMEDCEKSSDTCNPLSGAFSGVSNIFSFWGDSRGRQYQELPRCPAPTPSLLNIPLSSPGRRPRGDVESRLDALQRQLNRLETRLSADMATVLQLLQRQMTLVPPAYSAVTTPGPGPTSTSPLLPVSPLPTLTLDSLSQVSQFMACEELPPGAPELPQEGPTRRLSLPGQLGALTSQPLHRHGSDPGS
Recombinant human SHP2 protein (2-593), sequence (Q06124 2-593): as the sequence (Q06124 2-593) above

In the case of `Cc1c(N2CCC3(CC2)CO[C@@H](C)[C@H]3N)nc(C)n(-c2cccc(Cl)c2Cl)c1=O` (single isomer, unassigned) [Compound 23b], the tolerability [1] is reported as “All doses were well tolerated”, the tolerability [2] is reported as “All doses were well tolerated” and the tumor growth inhibition ([2]; FIG. 7) is reported as “reduces tumor growth; also recorded: Significant tumor growth inhibition”. For the same molecule, the IC50 ([3]; SHP-2 E76Z IC50 (nM) No peptide, without activating peptide) was 21 nM, the IC50 ([3]; with activating peptide IRSI_2pY 140 nM, read-out: SHP-2 E76Z IC50 (nM) peptide) was 12 nM and the tolerability [4] was “All doses were well tolerated”. The tumor growth inhibition ([4]; FIG. 2) was “multiple dosage levels reduce growth of the tumor a significant amount; also recorded: dose-dependent significant tumor growth inhibition”, the Ki [5] was greater than 10 µM and the IC50 [6] was 94 nM. It also gave a Fz [7] of 100%, a clearance ([7]; mouse, plasma, intravenous) of 15.5 mL/min/kg and a Vd ([7]; mouse, plasma, intravenous, read-out: Vd ss) of 4.64 L/kg. The IC50 ([8]; SHP-2 IC50 (nM) peptide, wild-type SHP-2, with activating peptide) was 12 nM, the IC50 ([8]; SHP-2 biochemical assay IC50 (μM), activating peptide IRSI_2pY 140 nM, DiFMUP, 60 min) was 9 nM and the “tumor growth / regression” value [9] was “reduces tumor size as compared to baseline; also recorded: Tumor regression”. The Kd [10] was 7.14 nM, the tolerability [11] was “All doses were well tolerated” and the tumor inhibition ([11]; FIG. 5) was “Significant tumor inhibition”.

— patent US11001561B2, “Pyrimidinone derivatives as SHP2 antagonists” (MERCK PATENT GMBH, priority 2019, dated 2021)
